According to patent US20020177180A1, “pH-indicator based assay for selective enzymes” (ThermoGen, Inc., priority 1998, published 2002):

Legend:
Test in all cases: Initial screening of ThermoGen esterases toward esters 1-31 (pH indicator), specific activity
Assay type in all cases: biochemical
Details in all cases: 1 mM substrate, pH 7.2, 7 vol % acetonitrile, 25° C.
esterase E011 = tested on: esterase E011
Experimental: (§1) Initial screening measures the initial rate of hydrolysis of different esters. The rate of reaction was measured by monitoring the release of protons using a pH indicator, 4-nitrophenol. In this assay, the yellow color of the phenoxide disappears as the reaction proceeds. The amount of ester hydrolyzed can be measured quantitatively, as is known in the art.

esterase E006 = tested on: esterase E006
Experimental: as §1
(§2) To survey the substrate selectivity of the ThermoGen esterases, the ability of the enzymes to hydrolyze thirty-one different commercially-available esters, Scheme 1 (FIG. 9, Table 6).

esterase E012 = tested on: esterase E012
Experimental: as §1, §2

esterase E014 = tested on: esterase E014
Experimental: as §1, §2

esterase E015 = tested on: esterase E015
Experimental: as §1, §2

esterase E016 = tested on: esterase E016
Experimental: as §1, §2

esterase E020 = tested on: esterase E020
Experimental: as §1, §2

| SMILES | Specific activity, esterase E011 (esterase E011) | Specific activity, esterase E006 (esterase E006) | Specific activity, esterase E012 (esterase E012) | Specific activity, esterase E014 (esterase E014) | Specific activity, esterase E015 (esterase E015) | Specific activity, esterase E016 (esterase E016) | Specific activity, esterase E020 (esterase E020) |
| --- | --- | --- | --- | --- | --- | --- | --- |
| CC(C(=O)Oc1ccc([N+](=O)[O-])cc1)c1ccccc1 (racemic) [Substrate 1, (±)-4-nitrophenyl-2-phenylpropanoate, reference compound] | 5.1 mmol ester hydrolyzed/min/mg protein | 120 mmol ester hydrolyzed/min/mg protein | 3.1 mmol ester hydrolyzed/min/mg protein | 1.2 mmol ester hydrolyzed/min/mg protein | 89 mmol ester hydrolyzed/min/mg protein | 63 mmol ester hydrolyzed/min/mg protein | 110 mmol ester hydrolyzed/min/mg protein |
| CC(C)Cc1ccc(C(C)C(=O)Oc2ccc([N+](=O)[O-])cc2)cc1 (racemic) [Substrate 2, (±)-4-nitrophenyl 2-(4-isobutylphenyl)propanoate, reference compound] | 160 mmol ester hydrolyzed/min/mg protein | 260 mmol ester hydrolyzed/min/mg protein | 11 mmol ester hydrolyzed/min/mg protein | 170 mmol ester hydrolyzed/min/mg protein | 350 mmol ester hydrolyzed/min/mg protein | 220 mmol ester hydrolyzed/min/mg protein | 370 mmol ester hydrolyzed/min/mg protein |
| NC(Cc1ccccc1)C(=O)Oc1ccc([N+](=O)[O-])cc1.O=C(O)C(F)(F)F (racemic) [Substrate 3, D,L-phenylalanine-4-nitrophenol ester TFA salt, reference compound] | 220 mmol ester hydrolyzed/min/mg protein | 410 mmol ester hydrolyzed/min/mg protein | 37 mmol ester hydrolyzed/min/mg protein | 180 mmol ester hydrolyzed/min/mg protein | 280 mmol ester hydrolyzed/min/mg protein | 230 mmol ester hydrolyzed/min/mg protein | 550 mmol ester hydrolyzed/min/mg protein |
| CCCC(=O)OCC1COC(C)(C)O1 (racemic) [Substrate 8, (±)-Solketal Butyrate, reference compound] | <0.1 mmol ester hydrolyzed/min/mg protein | 0.13 mmol ester hydrolyzed/min/mg protein | <2 mmol ester hydrolyzed/min/mg protein | <0.1 mmol ester hydrolyzed/min/mg protein | 0.16 mmol ester hydrolyzed/min/mg protein | 2.2 mmol ester hydrolyzed/min/mg protein | <0.2 mmol ester hydrolyzed/min/mg protein |
| C=COC(=O)CCCCC [Substrate 4] | 680 mmol ester hydrolyzed/min/mg protein | 1700 mmol ester hydrolyzed/min/mg protein | 48 mmol ester hydrolyzed/min/mg protein | 540 mmol ester hydrolyzed/min/mg protein | 1100 mmol ester hydrolyzed/min/mg protein | 1300 mmol ester hydrolyzed/min/mg protein | 3000 mmol ester hydrolyzed/min/mg protein |
| C=COC(=O)CCCCCCC [Substrate 5] | 260 mmol ester hydrolyzed/min/mg protein | 960 mmol ester hydrolyzed/min/mg protein | 50 mmol ester hydrolyzed/min/mg protein | 8.0 mmol ester hydrolyzed/min/mg protein | 320 mmol ester hydrolyzed/min/mg protein | 1200 mmol ester hydrolyzed/min/mg protein | 1200 mmol ester hydrolyzed/min/mg protein |
| CCCCCCCCCCCCCC(=O)Oc1ccc2nc3ccc(=O)cc-3oc2c1 [Substrate 6, Resorufin tetradecanoate, reference compound] | 280 mmol ester hydrolyzed/min/mg protein | 0.55 mmol ester hydrolyzed/min/mg protein | 27 mmol ester hydrolyzed/min/mg protein | 170 mmol ester hydrolyzed/min/mg protein | 330 mmol ester hydrolyzed/min/mg protein | 15 mmol ester hydrolyzed/min/mg protein | 1200 mmol ester hydrolyzed/min/mg protein |
| C=COC(=O)CCCCCCCCCCCCC [Substrate 7] | 0.45 mmol ester hydrolyzed/min/mg protein | 0.61 mmol ester hydrolyzed/min/mg protein | 7.6 mmol ester hydrolyzed/min/mg protein | 0.81 mmol ester hydrolyzed/min/mg protein | 3.0 mmol ester hydrolyzed/min/mg protein | 21 mmol ester hydrolyzed/min/mg protein | 1.0 mmol ester hydrolyzed/min/mg protein |
| CCCCCCCC(=O)OCC [Substrate 15] | 11 mmol ester hydrolyzed/min/mg protein | 160 mmol ester hydrolyzed/min/mg protein | 19 mmol ester hydrolyzed/min/mg protein | 5.1 mmol ester hydrolyzed/min/mg protein | 120 mmol ester hydrolyzed/min/mg protein | 83 mmol ester hydrolyzed/min/mg protein | 2.6 mmol ester hydrolyzed/min/mg protein |
| CCOC(=O)CBr [Substrate 18] | 5.5 mmol ester hydrolyzed/min/mg protein | 4.8 mmol ester hydrolyzed/min/mg protein | 5.9 mmol ester hydrolyzed/min/mg protein | 37 mmol ester hydrolyzed/min/mg protein | 100 mmol ester hydrolyzed/min/mg protein | 16 mmol ester hydrolyzed/min/mg protein | 3.1 mmol ester hydrolyzed/min/mg protein |
| COC(=O)CBr [Substrate 19] | 1.6 mmol ester hydrolyzed/min/mg protein | 1.9 mmol ester hydrolyzed/min/mg protein | 2.4 mmol ester hydrolyzed/min/mg protein | 0.73 mmol ester hydrolyzed/min/mg protein | 2.6 mmol ester hydrolyzed/min/mg protein | 7.6 mmol ester hydrolyzed/min/mg protein | 1.6 mmol ester hydrolyzed/min/mg protein |
| COC(=O)Cc1ccccc1 [Substrate 22] | <0.1 mmol ester hydrolyzed/min/mg protein | 0.16 mmol ester hydrolyzed/min/mg protein | <2 mmol ester hydrolyzed/min/mg protein | <0.1 mmol ester hydrolyzed/min/mg protein | 0.14 mmol ester hydrolyzed/min/mg protein | <2 mmol ester hydrolyzed/min/mg protein | 0.28 mmol ester hydrolyzed/min/mg protein |
| COC(=O)c1ccc(CO)cc1 [Substrate 23] | <0.1 mmol ester hydrolyzed/min/mg protein | 0.27 mmol ester hydrolyzed/min/mg protein | <2 mmol ester hydrolyzed/min/mg protein | <0.1 mmol ester hydrolyzed/min/mg protein | 0.13 mmol ester hydrolyzed/min/mg protein | <2 mmol ester hydrolyzed/min/mg protein | 0.47 mmol ester hydrolyzed/min/mg protein |
| CCCOC(C)=O [Substrate 24] | 0.25 mmol ester hydrolyzed/min/mg protein | 0.31 mmol ester hydrolyzed/min/mg protein | 2.8 mmol ester hydrolyzed/min/mg protein | <0.1 mmol ester hydrolyzed/min/mg protein | 0.26 mmol ester hydrolyzed/min/mg protein | <2 mmol ester hydrolyzed/min/mg protein | 0.85 mmol ester hydrolyzed/min/mg protein |
| CCCCOC(C)=O [Substrate 25] | 0.5 mmol ester hydrolyzed/min/mg protein | 0.54 mmol ester hydrolyzed/min/mg protein | <2 mmol ester hydrolyzed/min/mg protein | 0.21 mmol ester hydrolyzed/min/mg protein | 1.0 mmol ester hydrolyzed/min/mg protein | 13 mmol ester hydrolyzed/min/mg protein | 2.0 mmol ester hydrolyzed/min/mg protein |
| C=C(C)OC(C)=O [Substrate 27] | 45 mmol ester hydrolyzed/min/mg protein | 69 mmol ester hydrolyzed/min/mg protein | 2.4 mmol ester hydrolyzed/min/mg protein | 0.73 mmol ester hydrolyzed/min/mg protein | 100 mmol ester hydrolyzed/min/mg protein | 49 mmol ester hydrolyzed/min/mg protein | 3.3 mmol ester hydrolyzed/min/mg protein |
